The NIST ThermoML archive (doi:10.1021/acs.jced.7b00035)
Several values for one entry are separate records, joined by “and”; a condition that tells them apart may be missing. Equal values may be shown once.

Columns and labels:
[1] = xn = mol fraction of the nth substance listed; details: 100 kPa, Liquid, Vibrating tube method
[2] = excess molar enthalpy (molar enthalpy of mixing); xn = mol fraction of the nth substance listed; details: 100 kPa, Liquid, Flow calorimetry

CC(=O)CC(C)C [4-methylpentan-2-one] + O
Details | excess molar enthalpy, [2] | mass density, [1]
288.15 K, x1 = 0.000573 | -0.00173 kcal/mol | 998.669 kg/m3
288.15 K, x1 = 0.000574 | -0.00174 kcal/mol | 998.655 kg/m3
288.15 K, x1 = 0.00086 | – | 998.405 kg/m3 and 998.422 kg/m3
288.15 K, x1 = 0.001146 | -0.00341 kcal/mol | 998.224 kg/m3
288.15 K, x1 = 0.001147 | -0.00344 kcal/mol | 998.21 kg/m3
288.15 K, x1 = 0.001432 | -0.00429 kcal/mol | 997.995 kg/m3
288.15 K, x1 = 0.001434 | -0.00425 kcal/mol | 998.001 kg/m3
288.15 K, x1 = 0.001718 | -0.00512 kcal/mol | 997.779 kg/m3
288.15 K, x1 = 0.00172 | -0.00508 kcal/mol | 997.788 kg/m3
288.15 K, x1 = 0.002004 | -0.00591 kcal/mol | 997.592 kg/m3
288.15 K, x1 = 0.002006 | -0.00591 kcal/mol | 997.567 kg/m3
298.15 K, x1 = 0.000574 | -0.00135 kcal/mol and -0.00134 kcal/mol | 996.572 kg/m3 and 996.58 kg/m3
298.15 K, x1 = 0.00086 | -0.002 kcal/mol | 996.345 kg/m3
298.15 K, x1 = 0.000861 | -0.00203 kcal/mol | 996.319 kg/m3
298.15 K, x1 = 0.001146 | -0.00269 kcal/mol | 996.114 kg/m3
298.15 K, x1 = 0.001148 | -0.00271 kcal/mol | 996.078 kg/m3
298.15 K, x1 = 0.001433 | -0.0033 kcal/mol | 995.875 kg/m3
298.15 K, x1 = 0.001435 | -0.00335 kcal/mol | 995.871 kg/m3
298.15 K, x1 = 0.001718 | -0.00394 kcal/mol | 995.624 kg/m3
298.15 K, x1 = 0.001721 | -0.00397 kcal/mol | 995.64 kg/m3
298.15 K, x1 = 0.002004 | -0.00459 kcal/mol | 995.417 kg/m3
298.15 K, x1 = 0.002007 | -0.00455 kcal/mol | 995.402 kg/m3
308.15 K, x1 = 0.000573 | -0.000968 kcal/mol | 993.534 kg/m3 and 993.533 kg/m3
308.15 K, x1 = 0.000859 | -0.00147 kcal/mol | 993.283 kg/m3 and 993.282 kg/m3
308.15 K, x1 = 0.001145 | -0.00193 kcal/mol and -0.00192 kcal/mol | 993.03 kg/m3 and 993.053 kg/m3
308.15 K, x1 = 0.001431 | -0.00239 kcal/mol and -0.00238 kcal/mol | 992.791 kg/m3 and 992.795 kg/m3
308.15 K, x1 = 0.001716 | -0.00285 kcal/mol | 992.542 kg/m3
308.15 K, x1 = 0.001717 | -0.00288 kcal/mol | 992.525 kg/m3
308.15 K, x1 = 0.002002 | -0.0033 kcal/mol | 992.3 kg/m3
308.15 K, x1 = 0.002003 | -0.0033 kcal/mol | 992.285 kg/m3
318.15 K, x1 = 0.000573 | -0.000982 kcal/mol and -0.000633 kcal/mol | –
318.15 K, x1 = 0.000859 | -0.00093 kcal/mol and -0.000918 kcal/mol | 989.411 kg/m3 and 989.421 kg/m3
318.15 K, x1 = 0.001145 | -0.00122 kcal/mol | 989.156 kg/m3
318.15 K, x1 = 0.001146 | -0.00122 kcal/mol | 989.147 kg/m3
318.15 K, x1 = 0.001431 | -0.00149 kcal/mol | 988.905 kg/m3
318.15 K, x1 = 0.001432 | -0.00148 kcal/mol | 988.91 kg/m3
318.15 K, x1 = 0.001717 | -0.00179 kcal/mol | 988.633 kg/m3
318.15 K, x1 = 0.001718 | -0.00178 kcal/mol | 988.636 kg/m3
318.15 K, x1 = 0.002003 | -0.00204 kcal/mol | 988.402 kg/m3
318.15 K, x1 = 0.002004 | -0.00202 kcal/mol | 988.379 kg/m3

CC(=O)C(C)C [3-methyl-2-butanone] + O
Details | excess molar enthalpy, [2] | mass density, [1]
288.15 K, x1 = 0.000837 | -0.0025 kcal/mol | 998.559 kg/m3 and 998.558 kg/m3
288.15 K, x1 = 0.001672 | -0.00495 kcal/mol and -0.00497 kcal/mol | 998.026 kg/m3 and 998.025 kg/m3
288.15 K, x1 = 0.002505 | -0.00739 kcal/mol | 997.502 kg/m3
288.15 K, x1 = 0.002506 | -0.0074 kcal/mol | 997.502 kg/m3
288.15 K, x1 = 0.003337 | -0.00974 kcal/mol | 996.996 kg/m3
288.15 K, x1 = 0.003339 | -0.00976 kcal/mol | 996.993 kg/m3
288.15 K, x1 = 0.004168 | -0.0121 kcal/mol | 996.494 kg/m3
288.15 K, x1 = 0.004171 | -0.0121 kcal/mol | 996.488 kg/m3
288.15 K, x1 = 0.004998 | -0.0145 kcal/mol | 995.988 kg/m3
288.15 K, x1 = 0.005001 | -0.0144 kcal/mol | 996 kg/m3
298.15 K, x1 = 0.000836 | -0.00207 kcal/mol | 996.47 kg/m3
298.15 K, x1 = 0.001671 | -0.00411 kcal/mol | 995.897 kg/m3
298.15 K, x1 = 0.001672 | -0.00411 kcal/mol | 995.899 kg/m3
298.15 K, x1 = 0.002505 | -0.00612 kcal/mol and -0.00606 kcal/mol | 995.337 kg/m3 and 995.348 kg/m3
298.15 K, x1 = 0.003337 | -0.00802 kcal/mol and -0.00799 kcal/mol | 994.799 kg/m3 and 994.805 kg/m3
298.15 K, x1 = 0.004166 | -0.00989 kcal/mol | 994.261 kg/m3
298.15 K, x1 = 0.004168 | -0.00994 kcal/mol | 994.254 kg/m3
298.15 K, x1 = 0.004994 | -0.0118 kcal/mol | 993.729 kg/m3
298.15 K, x1 = 0.004998 | -0.0118 kcal/mol | 993.722 kg/m3
308.15 K, x1 = 0.000836 | -0.00164 kcal/mol | 993.424 kg/m3
308.15 K, x1 = 0.000837 | -0.00163 kcal/mol | 993.426 kg/m3
308.15 K, x1 = 0.001672 | -0.00322 kcal/mol and -0.00323 kcal/mol | 992.827 kg/m3 and 992.824 kg/m3
308.15 K, x1 = 0.002504 | -0.00478 kcal/mol | 992.235 kg/m3
308.15 K, x1 = 0.002506 | -0.00482 kcal/mol | 992.224 kg/m3
308.15 K, x1 = 0.003336 | -0.00632 kcal/mol | 991.647 kg/m3
308.15 K, x1 = 0.00334 | -0.00634 kcal/mol | 991.646 kg/m3
308.15 K, x1 = 0.004167 | -0.00783 kcal/mol | 991.064 kg/m3
308.15 K, x1 = 0.004171 | -0.00781 kcal/mol | 991.067 kg/m3
308.15 K, x1 = 0.005001 | -0.00926 kcal/mol | 990.494 kg/m3
318.15 K, x1 = 0.000836 | -0.00121 kcal/mol | 989.576 kg/m3 and 989.578 kg/m3
318.15 K, x1 = 0.00167 | -0.00239 kcal/mol | 988.947 kg/m3
318.15 K, x1 = 0.001671 | -0.00239 kcal/mol | 988.945 kg/m3
318.15 K, x1 = 0.002338 | -0.0033 kcal/mol | 988.447 kg/m3
318.15 K, x1 = 0.002505 | -0.00353 kcal/mol | 988.318 kg/m3
318.15 K, x1 = 0.003336 | -0.00465 kcal/mol | 987.702 kg/m3
318.15 K, x1 = 0.003337 | -0.00465 kcal/mol | 987.696 kg/m3
318.15 K, x1 = 0.004167 | -0.00571 kcal/mol | 987.091 kg/m3
318.15 K, x1 = 0.004168 | -0.00573 kcal/mol | 987.083 kg/m3
318.15 K, x1 = 0.004997 | -0.00677 kcal/mol | 986.477 kg/m3
318.15 K, x1 = 0.004998 | -0.00677 kcal/mol | 986.481 kg/m3
